Laboratory results published in publication PMC5865651, “Novel inhibitor candidates of TRPV2 prevent damage of dystrophic myocytes and ameliorate against dilated cardiomyopathy in a hamster model” (Oncotarget, 2018).

Tests used:
[1] = test system: TRPV2; set-up: method as in PMID 17673572; conditions: cited from earlier work
[2] = biological target: T1, mouse TRPV2 (mTRPV2) (Mus musculus, UniProt Q9WTR1); assay: 2-APB-induced increase in [Ca2+]i in HEK293 cells expressing mTRPV2 (fura-2, microplate reader / imaging); assay type: cell-based; conditions: for IC50 / inhibition of the 2-APB-induced increase in [Ca2+]i: HEK293 cells expressing mTRPV2, 2-APB 0.3 mM, CaCl2 5 mM, pH 6.5; for IC50: read-out: IC50 for the 2-APB-induced increase in [Ca2+]i (Ca2+ response); for Ca2+ responses elicited by TRPV2 agonists (initial assessment): cell-based assay, before optimisation of conditions; for inhibition of the 2-APB-induced increase in [Ca2+]i: concentrations up to 100 μM
T1 construct: expressed in transfected cells
T1 sequence (Q9WTR1 1-756): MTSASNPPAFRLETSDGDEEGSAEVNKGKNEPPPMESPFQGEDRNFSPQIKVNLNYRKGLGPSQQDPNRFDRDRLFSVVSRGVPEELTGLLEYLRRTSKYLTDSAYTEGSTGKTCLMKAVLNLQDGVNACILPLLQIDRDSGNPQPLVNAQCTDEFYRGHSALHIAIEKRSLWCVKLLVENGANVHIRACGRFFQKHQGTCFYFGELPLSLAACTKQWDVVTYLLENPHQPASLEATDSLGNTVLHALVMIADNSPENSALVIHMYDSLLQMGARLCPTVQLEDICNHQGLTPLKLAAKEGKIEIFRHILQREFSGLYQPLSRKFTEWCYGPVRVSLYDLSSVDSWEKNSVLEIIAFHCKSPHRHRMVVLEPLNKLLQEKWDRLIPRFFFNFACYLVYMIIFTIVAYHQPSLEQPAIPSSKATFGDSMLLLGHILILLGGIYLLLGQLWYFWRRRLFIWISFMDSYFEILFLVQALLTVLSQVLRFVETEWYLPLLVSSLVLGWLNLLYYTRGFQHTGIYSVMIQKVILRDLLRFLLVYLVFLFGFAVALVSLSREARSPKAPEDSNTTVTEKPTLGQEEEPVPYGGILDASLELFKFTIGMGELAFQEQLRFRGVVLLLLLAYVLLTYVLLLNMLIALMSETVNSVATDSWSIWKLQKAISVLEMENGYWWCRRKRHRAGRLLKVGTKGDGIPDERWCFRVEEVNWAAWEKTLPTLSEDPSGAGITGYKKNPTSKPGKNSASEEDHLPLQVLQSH
Procedure: HEK293 cells expressing mouse TRPV2 (mTRPV2) and non-transfected HEK293 cells were loaded with fura-2-AM and placed in low CaCl2 medium (0.5 mM).
For the drug screening, we designed a method involving measurement of the Ca^2+ response using a 96-well high-throughput plate-reader. Cells were placed in low CaCl2 (0.5 mM) medium, which was replaced with high CaCl2 medium (5 mM) with or without the TRPV agonist 2-APB and adjusted to various pH values.
(§1) [Ca^2+]i was measured by a ratiometric fluorescence method as previously described. Briefly, HEK293 cells were loaded with 4 μM fura-2-AM for 30 min at 37° C and maintained in balanced salt solution (BSS) (146 mM NaCl, 4 mM KCl, 2 mM MgCl2, 0.5 mM CaCl2, 10 mM glucose, 0.1% bovine serum albumin, and 10 mM HEPES/Tris, pH 7.4). Fura-2-AM fluorescence was measured using an Aquacosmos fluorescence image processor (Hamamatsu Photonics, Hamamatsu, Japan). The time-course data are presented as the ratio of fluorescence at an excitation wavelength of 340 nm to that at 380 nm. The increase in the fluorescence ratio induced by the TRPV2 agonist 2-APB or high extracellular Ca^2+ (ΔR) was normalized to the initial ratio (R0) before stimulation. The fluorescence relative ratio (ΔR/R0) was plotted as the summary data in the fluorescence imaging analysis.
For screening, cells were plated in 96-well plates and the fura-2-AM fluorescence ratio at excitation wavelengths of 340 nm and 380 nm was monitored using a GENios Pro microplate reader (Tecan, Research Triangle Park, NC, USA) or POLARstar Omega (BMG Labtech, Germany). Cells were stimulated in BSS containing 5 mM CaCl2. […] All Ca^2+ measurements were carried out at room temperature. […] For simplicity, the results are presented as normalized values (% maximum) from the microplate reader experiment.

[3] = biological target: T2, hTRPC1 (Homo sapiens, UniProt P48995); assay: Store-operated Ca2+ entry after thapsigargin in hTRPC1-transfected HEK293 cells; assay type: cell-based; conditions: hTRPC1-transfected HEK293 cells; thapsigargin; compound 100 μM
T2 construct: expressed in transfected cells; host or cells: HEK293 cells
Procedure: Figure 4 Effects of inhibitor compounds on the Ca^2+ response of cells expressing hTRPV1, hTRPV2, or hTRPC1 (A) Effect of compounds on CaCl2 (5 mM)-induced peak fluorescence ratio in non-transfected (nt) or hTRPV2-transfected CHO cells. The extracellular Ca^2+-dependent increase in the ratio of fura-2 fluorescence intensity at 340/380 nm (ΔR, 2 min after addition of chemicals) was plotted as ΔR/R0 after normalising to the initial fluorescence ratio (R0). […] Solid bar, no inhibitor. (B) Effect of compounds on 2-APB (1 mM)/high extracellular CaCl2-induced peak fluorescence ratio in nt or hTRPV1-transfected HEK293 cells. […] (C) Effect of compounds on store-operated Ca^2+ entry in nt or hTRPC1-transfected HEK293 cells. Cells were treated with the endoplasmic reticulum Ca^2+ pump inhibitor thapsigargin and exposed to CaCl2 and the indicated compounds. ΔR was measured 2 min after the addition of CaCl2. […] Data are shown as mean ± SD (n = 5).
as §1, with “Briefly, HEK293 cells were loaded with 4 μM fura-2-AM for 30 min at 37° C and maintained in balanced salt solution (BSS) (146 mM NaCl, 4 mM KCl, 2 mM MgCl2, 0.5 mM CaCl2, 10 mM glucose, 0.1% bovine serum albumin, and 10 mM HEPES/Tris, pH 7.4).” left out

[4] = test system: cardiomyopathic J2N-k hamsters; assay: Cardiomyopathy in J2N-k hamsters in vivo (echocardiography, serum cTN-I, Masson's trichrome fibrosis); set-up: species or system hamster; conditions: 300 mg/kg/day mixed with feed, 3 weeks
Procedure: Male δ-SG-deficient cardiomyopathic J2N-k and age-matched wild-type J2N-n hamsters (9 weeks old) were purchased from Japan SLC, Inc. (Shizuoka, Japan). Tranilast was ingested mixed with feed (300 mg/kg/day) as described previously, whereas other drugs (Figure 1) were administered orally in the drinking water at doses of 30 mg/kg (except lumin) per day for 3 weeks. In case of lumin, we first performed dose-dependent experiment at dose of 1,10 and100 mg/kg per day for 3 weeks, in order to determine the effective dose. […] After drug treatment, serum cardiac troponin (cTN)-I was measured and echocardiography analysis was performed. Histochemistry of cardiac muscles was performed as previously described. All animal experiments were performed according to the Guidelines for Animal Experimentation of the National Cerebral and Cardiovascular Center Research Institute.
Ventricles were fixed in phosphate-buffered saline containing 10% formalin and embedded in paraffin. Serial sections were cut at a thickness of 5 μm and stained with Masson's trichrome stain for morphological analysis. Sections were viewed under a BX41 light microscope (Olympus, Tokyo, Japan). Images were acquired with an FX380 digital camera (Olympus) and analysed using an FLVFS-LS imaging system (Flovel, Tokyo, Japan).
Fibrosis was assessed by measuring Masson's trichrome-positive areas. Briefly, colour images were converted to binary form by setting the threshold value so as to detect only blue-stained fibrotic areas, which were summed and reported as a percentage of the total.
Cardiac function was evaluated by echocardiography using a Sonos5500 ultrasound system (Hewlett-Packard, Palo Alto, CA, USA) with a 12-MHz transducer and M-mode imaging. The animals were sedated with tribromoethanol (350 mg/kg by intraperitoneal injection) during the process.
(§2) Creatine phosphokinase (CK) activity in the medium was determined using an in vitro colorimetric assay kit (CK Test Kit; Wako Pure Chemical Industries, Ltd., Osaka, Japan) according to the manufacturer's protocol The cTN-I level in the serum was measured, while quantitative immunoblotting and immunocytochemistry were performed as previously described. Protein concentration was measured using the bicinchoninic acid assay (Pierce Chemical Co., Rockford, IL, USA) with bovine serum albumin as the standard. All histochemical and physiological analyses were performed by investigators blinded to the drug treatments. Unless otherwise stated, results are presented as the mean ± SD of at least 5 determinations. The unpaired Student's t-test and one-way ANOVA followed by Dunnett's test were used to analyse the data. Values of P < 0.05 (indicated as asterisks in the figures) were considered statistically significant. All cellular measurements were repeated at least 5 times. Representative data are shown.

[5] = test system: TRPV2; set-up: method as in PMID 21147993; conditions: TRPV2-transfected HEK293 cells; cited from earlier work
[6] = test system: J2N-k myocytes; assay: Stretch-induced CK release from J2N-k myocytes; assay type: cell-based, hamster; conditions: 500 μM, 30 min pretreatment, cyclic stretch 20% elongation 1 h
Procedure: as §2

[7] = biological target: T3, mTRPV2 channel (Mus musculus, UniProt Q9WTR1); assay: Whole-cell patch clamp of 2-APB-evoked mTRPV2 current in HEK293 cells; assay type: cell-based; conditions: tranilast 100 μM; 200 μM 2-APB; data not shown
T3 construct: expressed in transfected cells
T3 sequence (Q9WTR1 1-756): T1 sequence (Q9WTR1 1-756)
Procedure: The fluorescence ratio was measured by a microplate reader and normalized by the maximal value. Data are shown as mean ± SD (n = 5). […] The current values at −100 mV measured by an every-2-second ramp protocol were plotted. […] The current waveforms of the control cells and the cells 11 minutes after application of 15 μM lumin were superimposed. The L-type Ca^2+ channel currents were elicited by depolarizing pulses of 0 mV for 200 milliseconds from −80 mV.
TRPV2 currents were recorded under voltage-clamp conditions by the whole-cell patch-clamp technique. Patch pipettes (2–5 MΩ) were filled with an intracellular solution containing 110 mM K-aspartate, 30 mM KCl, 10 mM NaCl, 1 mM MgCl2, 10 mM BAPTA, 10 mM HEPES, and 3 mM MgATP (adjusted to pH 7.2 with KOH). The extracellular solution contained 145 mM NaCl, 5 mM KCl, 1.5 mM MgCl2, 1 mM EGTA, 10 mM HEPES, and 10 mM glucose (pH was adjusted to 6.5 with NaOH). Because TRPV2 was reported to desensitize in the presence of extracellular Ca^2+ [41], we used nominally Ca^2+-free medium containing 1 mM EGTA to prevent desensitization. In the experiments confirming the pH dependence of the response, the pH was adjusted to 7.4. In the whole-cell recordings, the membrane potential of the cell was held at −60 mV, while voltage ramps of 400 ms from −100 mV to +60 mV were applied every 2 seconds. Currents through the electrode were recorded at 5 kHz and filtered at 2 kHz by an Axopatch 200B amplifier (Molecular Devices, LLC, Sunnyvale, CA, USA). The junctional potential was −11.7 mV.

T2 sequence (P48995 whole entry): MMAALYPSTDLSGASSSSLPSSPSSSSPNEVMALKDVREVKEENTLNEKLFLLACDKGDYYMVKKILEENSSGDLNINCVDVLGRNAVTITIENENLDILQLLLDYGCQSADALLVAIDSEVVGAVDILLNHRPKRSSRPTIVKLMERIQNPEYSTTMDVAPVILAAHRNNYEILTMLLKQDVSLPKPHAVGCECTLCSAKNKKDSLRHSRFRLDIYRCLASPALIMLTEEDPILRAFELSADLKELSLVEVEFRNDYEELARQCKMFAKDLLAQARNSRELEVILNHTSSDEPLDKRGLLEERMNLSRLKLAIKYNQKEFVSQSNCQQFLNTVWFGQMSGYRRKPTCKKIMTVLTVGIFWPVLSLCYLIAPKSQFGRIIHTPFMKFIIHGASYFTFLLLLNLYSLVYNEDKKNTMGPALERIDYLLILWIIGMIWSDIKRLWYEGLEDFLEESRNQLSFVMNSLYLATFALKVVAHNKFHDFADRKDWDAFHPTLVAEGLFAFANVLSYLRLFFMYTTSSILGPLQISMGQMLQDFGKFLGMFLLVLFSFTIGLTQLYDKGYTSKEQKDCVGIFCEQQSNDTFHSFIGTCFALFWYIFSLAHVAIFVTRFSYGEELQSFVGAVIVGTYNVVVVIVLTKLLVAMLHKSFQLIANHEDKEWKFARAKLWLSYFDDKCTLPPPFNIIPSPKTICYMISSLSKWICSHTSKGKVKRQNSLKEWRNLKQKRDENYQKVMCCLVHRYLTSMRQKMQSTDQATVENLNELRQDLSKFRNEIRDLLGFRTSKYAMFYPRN

FC(F)(F)c1ccccc1-n1ccnc1 [1-(2-(trifluoromethyl)phenyl)imidazole]
effective doses for inhibition of TRPV2 activation [1]: 100 to 1000 µM

Nc1ccncc1 [4-amino-pyridine]
effective doses for inhibition of TRPV2 activation [1]: 100 to 1000 µM

COc1ccc(CCCOC(Cn2ccnc2)c2ccc(OC)cc2)cc1 (stereo not drawn) [SKF96365, 1-[β-[3-(4-methoxyphenyl)propoxy]-4-methoxyphenethyl]-1H-imidazole]
IC50 [2]: ≥ 10 µM | effect on store-operated increase in [Ca2+]i [3]: strongly inhibited

C=C(C)[C@@H]1CCC(C)=C[C@H]1c1c(O)cc(CCCCC)cc1O [cannabidiol]
Ca2+ responses elicited by TRPV2 agonists (initial assessment) [2]: too small

CC(C)c1ccc(C(=O)NC(=N)N)cc1S(C)(=O)=O [cariporide]
inhibition of the 2-APB-induced increase in [Ca2+]i [2]: did not inhibit

COc1ccc([C@@H]2Sc3ccccc3N(CCN(C)C)C(=O)[C@@H]2OC(C)=O)cc1 [diltiazem]
inhibition of the 2-APB-induced increase in [Ca2+]i [2]: did not inhibit

CCCN(CCC)S(=O)(=O)c1ccc(C(=O)O)cc1 [probenecid]
Ca2+ responses elicited by TRPV2 agonists (initial assessment) [2]: too small

[H]/N=C(/N)N[C@H]1[C@H](O)[C@@H](O)[C@H](O[C@@H]2O[C@@H](C)[C@](O)(C=O)[C@H]2O[C@@H]2O[C@@H](CO)[C@H](O)[C@@H](O)[C@@H]2NC)[C@@H](N/C(N)=N\[H])[C@@H]1O [streptomycin]
inhibition of the 2-APB-induced increase in [Ca2+]i [2]: did not inhibit

CC[N+](CC)(CC)CC [tetraethylammonium]
effective doses for inhibition of TRPV2 activation [1]: 100 to 1000 µM

COc1ccc(/C=C/C(=O)Nc2ccccc2C(=O)O)cc1OC [tranilast, N-[3,4-dimethoxycinnamonyl]-anthranilic acid]
effect on fibrosis (Masson's trichrome) [4]: prevented fibrosis | effect on fractional shortening (FS) [4]: prevented | effect on left ventricular end-diastolic dimension (LVDd) [4]: small effect | effect on left ventricular end-systolic dimension (LVDs) [4]: prevented the increase | effect on serum level of cTN-I [4]: reduced | effect on pressure-induced inward current [5]: blocked | IC50 [2]: ≥ 10 µM | reduction of stretch-induced CK release [6]: up to 70% | effect on TRPV2 channel activity [7]: did not inhibit
